# Like-named read-outs stand apart in the source and are kept apart here.
# What was measured:
# [1] = test system: panel of HIV-1 ENV-pseudoviruses (subtype A, A/D, A2/D, A/E, A/G, B, C and D); test: microbe, parasite or virus in culture; format: cell-based
# HIV-1 Integrase = target: T1, HIV-1 Integrase (Human immunodeficiency virus type 1 group M subtype B, UniProt P04585); test: HIV-1 Integrase Assay (ExpressBio kit); format: biochemical
# T1 construct: HIV-1 Integrase Assay Kit from ExpressBio; purchased ExpressBio (Thurnmont, Md.)
# Procedure: HIV-1 Integrase was performed as per the protocol in the HIV-1 Integrase Assay Kit from ExpressBio (Thurnmont, Md.). (See Table 3)
# TZM-bl cells = test: Cytotoxicity in TZM-bl cells (XTT); format: cell-based; conditions: for CC50: XTT, 3 days
# Procedure: (§1) The cytotoxicity of test compounds in TZM-bl cells was also measured by the XTT method described previously^7. […] The soluble intracellular formazan was quantitated colorimetrically at 450 nm 4 h later. The percent of cytotoxicity and the CC50 values were calculated as above. (See Table 4)
# [2] = Cytotoxicity in TZM-bl cells (XTT); format: cell-based; conditions: human, XTT, 3 days
# Procedure: as §1
# [3] = test system: HIV-1 pseudovirus pseudotyped with HXB2 Env; test: microbe, parasite or virus in culture; format: cell-based; conditions: single cycle assay, TZM-bl cells infected with HIV-1 pseudovirus pseudotyped with HXB2 Env;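 also: endpoint is IC50 for inhibition of pseudovirus infection of TZM-bl cells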
# [4] = test system: lab-adapted and primary HIV-1 isolates; test: Multi-cycle infection assay in PBMC (p24 ELISA)
# PBMC = test: Cytotoxicity in PBMC (XTT); format: cell-based; conditions: 7 days
# Procedure: For the PBMC toxicity assay we used 5×10^5 cells/ml and the cytotoxicity of the compounds was measured after 7 days of incubation as previously reported^8. Following the addition of XTT the soluble intracellular formazan was quantitated colorimetrically at 450 nm 4 h later. The percent of cytotoxicity and the CC50 values were calculated as above. (See Table 4)
# MT-2 cells = test: Cytotoxicity in MT-2 cells (XTT); format: cell-based; conditions: 4 days
# Procedure: Cytotoxicity of test compounds in MT-2 cells was measured a by colorimetric method using XTT [(sodium 3′-(1-(phenylamino)-carbonyl)-3,4-tetrazolium-bis(4-methoxy-6-nitro) bezenesulfonic acid hydrate)] (PolySciences) as previously described^7. Briefly, 100 μl of a test compound at graded concentrations was added to an equal volume of cells (1×10^5 cells/ml) in 96 well plates followed by incubation at 37° C. for 4 days, which ran parallel to the neutralization assay in MT-2. Following the addition of XTT the soluble intracellular formazan was quantitated colorimetrically at 450 nm 4 h later. […] (See Table 4)
# [5] = test system: laboratory-adapted HIV-1 strains; test: Multi-cycle infection assay in MT-2 cells (p24 ELISA); conditions: read-out: IC50 (μm)
# Procedure: The inhibitory activity of test compounds on infection by laboratory-adapted HIV-1 strains was determined as previously described^6. Briefly, 1×10^4 MT-2 cells were infected with HIV-1IIIB and other lab-adapted HIV-1 at 100 TCID50 (0.01 MOI) in the presence or absence of test compounds at graded concentrations overnight. The culture supernatants were then removed and fresh media were added. On the fourth day post-infection, 100 μl of culture supernatants were collected from each well, mixed with equal volume of 5% Triton X-100 and tested for p24 antigen by “sandwich” ELISA.
# [6] = Human immunodeficiency virus 1, TZM-bl, read-out: IC50 (μM) ± S.D., subtype A2/D, NIH # 11905, ENV QG393.60M.ENV.A1
# [7] = Human immunodeficiency virus 1, HXB2, TZM-bl
# [8] = read-out: IC50 (μm), laboratory strain BaL, subtype B, co-receptor R5
# [9] = read-out: IC50 (μm), laboratory strain SF162, subtype B, co-receptor R5
# [10] = read-out: IC50 (μm), primary isolate 92US657, subtype B, co-receptor R5
# [11] = read-out: IC50 (μm), primary isolate 93MW959, subtype C, co-receptor R5
# [12] = read-out: IC50 (μm), primary isolate RU570, subtype G, co-receptor R5
# [13] = RT-resistant isolate AZT-R, subtype B, MT-2, co-receptor X4
# [14] = fusion resistant isolate pNL4-3 gp41(36G) V38E, N42S, subtype B, MT-2, co-receptor X4
# [15] = laboratory strain MN, subtype B, MT-2, co-receptor X4
# [16] = laboratory strain SF2, subtype B, MT-2, co-receptor R5X4
# [17] = protease resistant isolate HIV-1RF/L-323-12-3, subtype B, MT-2, co-receptor X4
compound,measurement,setting,value
"Cc1nc(C(NC(=O)c2ccc(-c3ccc(Cl)cc3)[nH]2)C2CCCCN2)sc1CO (single isomer, unassigned) [Compound 17]",IC50,[1]; [6],0.41 ± 0.2 µM
same,IC50,HIV-1 Integrase,> 100 µM
"Cc1nc(C(CN)NC(=O)c2ccc(-c3ccc(Cl)c(F)c3)[nH]2)sc1CO (single isomer, unassigned) [Compound 41]",CC50,TZM-bl cells,≥ 33 µM
same,IC50,"[1]; Human immunodeficiency virus 1, TZM-bl, read-out: IC50 (μM) ± S.D., subtype C, NIH # 11312, ENV ZM249M.PL1",1 µM
same,IC50,HIV-1 Integrase,> 100 µM
"Cc1nc(C(CN(C)C)NC(=O)c2ccc(-c3ccc(Cl)cc3)[nH]2)sc1CO (single isomer, unassigned) [Compound 62]",CC50 at 3 days,[2],> 40 µM
same,IC50,[3]; [7],22 ± 3.8 µM
"Cc1ccc(-c2ccc(C(=O)NC(CN(C)C)c3nc(C)c(CO)s3)[nH]2)cc1F (single isomer, unassigned) [Compound 64]",CC50 at 3 days,[2],~40 µM
same,IC50,[3],~40 µM
"Cc1nc(C(CCN(C)C)NC(=O)c2ccc(-c3ccc(Cl)c(F)c3)[nH]2)sc1CO (single isomer, unassigned) [Compound 74]",CC50 at 3 days,[2],22 ± 1 µM
same,IC50,[3],4.6 ± 0.2 µM
"CNCCC(NC(=O)c1ccc(-c2ccc(C)c(F)c2)[nH]1)c1nc(C)c(CO)s1 (single isomer, unassigned) [Compound 78]",CC50 at 3 days,[2],36.4 ± 2.6 µM
same,IC50,[3],10.4 ± 0.2 µM
"CNCCC(NC(=O)c1ccc(-c2ccc(Cl)c(F)c2)[nH]1)c1nc(C)c(CO)s1 (single isomer, unassigned) [Compound 80]",CC50 at 3 days,[2],22.3 ± 0.6 µM
same,IC50,[3],9.1 ± 1.1 µM
"CNCCC(NC(=O)c1ccc(-c2ccc(Cl)cc2)[nH]1)c1nc(C)c(CO)s1 (single isomer, unassigned) [Compound 82]",CC50 at 3 days,[2],23 ± 1.2 µM
same,IC50,[3],18.6 ± 1.5 µM
"Cc1ccc(-c2ccc(C(=O)NC(CCN)c3nc(C)c(CO)s3)[nH]2)cc1F (single isomer, unassigned) [Compound 84]",CC50 at 3 days,[2],47 ± 0.6 µM
same,IC50,[3],18.2 ± 2.6 µM
"Cc1nc(C(CCN)NC(=O)c2ccc(-c3ccc(Cl)cc3)[nH]2)sc1CO (single isomer, unassigned) [Compound 88]",CC50 at 3 days,[2],41 ± 1.1 µM
same,IC50,[3],18.7 ± 0.7 µM
"NCC(NC(=O)c1ccc(-c2ccc(Cl)c(F)c2)[nH]1)c1ncc(CO)s1 (single isomer, unassigned) [Compound 90]",CC50,TZM-bl cells,37.4 ± 0.3 µM
same,IC50,HIV-1 Integrase,> 100 µM
"Cc1ccc(-c2ccc(C(=O)NC(CN)c3ncc(CO)s3)[nH]2)cc1F (single isomer, unassigned) [Compound 99]",CC50,TZM-bl cells,38.8 ± 0.8 µM
same,IC50,"[1]; Human immunodeficiency virus 1, TZM-bl, read-out: IC50 (μM) ± S.D., subtype A, ENV KNH1144",1.1 ± 0.2 µM
same,IC50,"[1]; subtype A, ENV BG505-T332N, read-out: IC50 (μM) ± S.D.",0.99 ± 0.1 µM
"NCC(NC(=O)c1ccc(-c2ccc(Cl)c(F)c2)[nH]1)c1ncc(CO)s1 (single isomer, unassigned) [Compound 101]",CC50 at 3 days,[2],30.8 ± 1.9 µM
same,IC50,[3],0.57 ± 0.01 µM
"NCC(NC(=O)c1ccc(-c2ccc(Cl)cc2)[nH]1)c1ncc(CO)s1 (single isomer, unassigned) [Compound 104]",CC50 at 3 days,[2],38 ± 1.5 µM
same,IC50,[3],1.3 ± 0.1 µM
"COc1cc(C(=O)NC(CN)c2nc(C)c(CO)s2)[nH]c1-c1ccc(Cl)cc1 (single isomer, unassigned) [Compound 105]",CC50 at 3 days,[2],16.7 ± 0.1 µM
same,IC50,[3]; [7],8.8 ± 0.5 µM
"Cc1nc(C(NC(=O)c2ccc(-c3ccc(Cl)cc3)[nH]2)C(C)(C)N)sc1CO (single isomer, unassigned) [Compound 109]",CC50 at 3 days,[2],22.1 ± 1.8 µM
same,IC50,[3]; [7],1.4 ± 0.5 µM
"Cc1nc(C(NC(=O)c2ccc(-c3ccc(Cl)c(F)c3)[nH]2)C(C)(C)N)sc1CO (single isomer, unassigned) [Compound 111]",CC50 at 3 days,[2],14 ± 0.4 µM
same,IC50,[3]; [7],0.44 ± 0.03 µM
"Cc1ccc(-c2ccc(C(=O)NC(c3nc(C)c(CO)s3)C(C)(C)N)[nH]2)cc1F (single isomer, unassigned) [Compound 113]",CC50 at 3 days,[2],17.1 ± 0.6 µM
same,IC50,[3],1.1 ± 0.1 µM
"CNCC(NC(=O)c1ccc(-c2ccc(C)c(F)c2)[nH]1)c1ncc(CO)s1 (single isomer, unassigned) [Compound 118]",CC50 at 3 days,[2],21 ± 0.8 µM
same,IC50,[3],2 ± 0.3 µM
"NCC(NC(=O)c1ccc(-c2cc(F)c(Cl)c(F)c2)[nH]1)c1ncc(CO)s1 (single isomer, unassigned) [Compound 120]",CC50,TZM-bl cells,31.4 ± 1.1 µM
same,IC50,[1]; [6],1 ± 0.06 µM
"Cc1nc(C(CN)NC(=O)c2ccc(-c3ccc(F)c(F)c3)[nH]2)sc1CO (single isomer, unassigned) [Compound 121]",percentage in brackets after CC50 >51,"TZM-bl cells; printed ""(30%)"" without explanation, presumably toxicity at 51 μM",30%
same,CC50 at 3 days,[2],> 51 µM
same,IC50,[3]; [7],3.4 ± 0.7 µM
"CC(C)(N)C(NC(=O)c1ccc(-c2ccc(Cl)c(F)c2)[nH]1)c1ncc(CO)s1 (single isomer, unassigned) [Compound 123]",CC50 at 3 days,[2],14.5 ± 2 µM
same,IC50,[3]; [7],0.56 ± 0.03 µM
"Cc1ccc(-c2ccc(C(=O)NC(c3ncc(CO)s3)C(C)(C)N)[nH]2)cc1F (single isomer, unassigned) [Compound 125]",CC50 at 3 days,[2],32.5 ± 0.3 µM
same,IC50,[3]; [7],0.63 ± 0.03 µM
"COc1ccc(-c2ccc(C(=O)NC(CN)c3ncc(CO)s3)[nH]2)cc1OC (single isomer, unassigned) [Compound 129]",CC50 at 3 days,[2],> 74.5 µM
same,IC50,[3]; [7],> 74.5 µM
Cc1nc(C(NC(=O)C(=O)Nc2ccc(Cl)cc2)C2CCCCN2)sc1CO (stereo not shown) [NBD-09027],IC50,[4]; [8],35.8 ± 1.2 µM
same,IC50,[4]; [9],12.7 ± 0.7 µM
same,IC50,[4]; [10],8.6 ± 0.9 µM
same,IC50,"[4]; read-out: IC50 (μm), primary isolate 93IN101, subtype C, co-receptor R5",> 87 µM
same,IC50,[4]; [11],> 43.5 µM
same,IC50,"[4]; read-out: IC50 (μm), primary isolate BCF02, (Group 0), co-receptor R5",~87 µM
same,IC50,[4]; [12],8.5 ± 0.8 µM
same,CC50,PBMC,> 160 µM
same,CC50,MT-2 cells,> 108 µM
same,IC50,[5]; [13],4.4 ± 1.1 µM
same,IC50,[5]; [14],5.8 ± 0.3 µM
same,IC50,"[5]; laboratory strain IIIB, subtype B, MT-2, co-receptor X4",4.7 ± 0.6 µM
same,IC50,[5]; [15],4 µM
same,IC50,[5]; [16],5.7 ± 0.9 µM
same,IC50,[5]; [17],14.7 ± 2.3 µM
NBD-556,IC50,"[4]; read-out: IC50 (μm), laboratory strain 89.6, subtype B, co-receptor R5X4",4.8 ± 1 µM
same,IC50,[4]; [8],≥ 118 µM
same,IC50,[4]; [9],48.9 ± 7.3 µM
same,IC50,[4]; [10],48 ± 1.65 µM
same,IC50,[4]; [11],57.2 ± 8.7 µM
same,IC50,"[4]; read-out: IC50 (μm), primary isolate 93TH060, subtype E, co-receptor R5",> 45 µM
same,IC50,[4]; [12],19.5 ± 2.3 µM
same,CC50,PBMC,> 280 µM
same,CC50,MT-2 cells,> 280 µM
same,IC50,[5]; [13],58 ± 14.3 µM
same,IC50,[5]; [14],11 µM
same,IC50,[5]; [15],15.9 ± 1.6 µM
same,IC50,"[5]; laboratory strain RF, subtype B, MT-2, co-receptor R5X4",18.7 ± 1.3 µM
same,IC50,[5]; [16],≥ 118 µM
same,IC50,[5]; [17],> 59 µM
same,IC50,HIV-1 Integrase,> 200 µM

# From patent US11059808B2, “Substituted phenylpyrrolecarboxamides with therapeutic activity in HIV” (New York Blood Center, Inc., priority 2014, dated 2021)
